Ends that are not written are not given here.
Tests used:
[1] = test system: adult rabbit cardiac myocytes; experiment: Peptide treatment of adult rabbit cardiac myocytes; assay type: cell-based; details: differentiated cells
neuroblastoma = experiment: Peptide application to neuroblastoma cells (data not shown); assay type: cell-based
C2C12 myoblasts = experiment: Prelamin A pre peptide treatment of mitotically dividing C2C12 myoblasts, microscopy/immunostaining; assay type: cell-based, mouse
Procedure: (§1) Cells and transfections. C2C12 and H9C2 cells were cultured in Growth Media (GM) defined as DMEM containing 10% (vol/vol) fetal bovine serum supplemented with Lglutamine, HEPES, non-essential amino acids and antibiotics. Effectene (Qiagen) was used to transfect plasmid DNA into cells following the manufacturer's instructions. Nondifferentiating transfected cells were allowed to continue growing for an additional 24 h before being processed for microscopy, or until confluent for protein isolation.
Peptide synthesis. The farnesylated and carboxymethylated prelamin A C-terminal peptide N-LLGNSSPRTQSPQNC-C (SEQ ID NO:2) was generated by FMOC solid phase peptide synthesis, and farnesylated and carboxymethylated (Biosynthesis). The peptide was analyzed on a C4 column and by laser desorption mass spectrometry. The lyophilized peptide was resuspended in DMSO.
(§2) Microscopy. Cells were fixed in cold 70% methanol/30% acetone solution for 10 min. Immunostaining was performed with anti-human lamin A/C (Novocastra), anti-prelamin A (Santa Cruz), or anti-desmin (Sigma) primary antibodies followed by the appropriate fluorescently labeled secondary antibody and mounting in anti-fade media containing DAPI (Vector Laboratories). Images were captured on an Olympus IX81 inverted microscope with Olympus objectives (U PLAN APO 10× oil N.A. 0.40, UAPO 40× oil N.A. 1.35, TIRFM PLAN APO 60× oil N.A. 1.45 WD 0.15 mm) and a Hamamatsu ORCA IIER monochromatic CCD camera and Intelligent Imaging Slidebook software. Images were also acquired on an Olympus IX70 Infinity inverted microscope with Olympus objectives (100× U PLAN APO, N.A. 1.35, W.D. 0.1 mm, oil; 20× U PLAN Fluorite, N.A. 0.5) with a Photometrics Quantix cooled CCD camera using Deltavision software. Signal strengths for the individual channels were adjusted using Adobe Photoshop strictly for improving the overall signal to noise ratio.
The farnesylated and carboxymethylated prelamin A pre peptide was chemically synthesized, and mitotically dividing C2C12 myoblasts were treated with the peptide at 1, 10 and 25 μg/ml in complete growth media containing 10% FBS.

[2] = test system: neonatal rat cardiac myocytes (NRMCs); experiment: Peptide treatment of neonatal rat cardiac myocytes (NRMCs); assay type: cell-based
Text: Consequently, the prelamin A pre peptide not only determines tissue organization amongst the same type of cells, but also intracellular organization between different cell and tissue types.

ES cells = experiment: Peptide treatment of embryonic stem cells, staining for tubulin, pre peptide, DAPI; assay type: cell-based; details: 1 μg/ml, 6 hours
Text: ES cells were contacted with the prelamin A pre peptide (courtesy of Dr. Chris Hogan, University of Colorado).
FIGS. 14A-14C show a 10× control. The ES cells have round distinct nuclei and are expressing tubulin. The prelamin A signal is primarily in extracellular aggregates, though nuclear staining can also be detected.

H9c2 cells = experiment: Western blots of peptide-treated H9c2 cells; assay type: cell-based, rat; details: Western blot
Procedure: Western blots. Cells were lysed in cell buffer (1% Triton X-100, 20 mM Tris-Cl, 7.5, 10 mM NaCl, 5 mM MgC2) containing 46 μg/ml leupeptin, 10 μg/ml aprotinin, and 250 μg/ml AE-BSF for 10 min on ice. Total protein concentration was determined using BioRad Protein Assay reagent and equal amounts of total protein were loaded in each lane. Western blots were probed with anti-lamin A/C (Novocastra, Santa Cruz), antiprelamin A (Santa Cruz) and anti-myogenin (Santa Cruz) primary antibodies and HRP-conjugated secondary antibodies (Santa Cruz, Pierce). Secondary antibody detection was performed using Super signal HRP (Pierce).
Higher order intra- and intercellular organization is clearly evident in visible striations in the desmin staining pattern. […] As in serum starvation induced differentiation of H9c2 myoblasts (26), an increase in the myogenic transcription factor myogenin is seen upon peptide treatment (FIG. 5F).

fibroblasts = experiment: Peptide exposure of homogeneous fibroblast cultures; assay type: cell-based
[3] = test system: Mouse F9 embryonic carcinoma cells; experiment: Peptide treatment of F9 embryonic carcinoma cells, lamin A/C, keratin 8, DAPI staining; assay type: cell-based; details: two days
Procedure: Mouse F9 embryonic carcinoma cells were treated with the prelamin A peptide for two days (FIGS. 19D-19F) and then were fixed, immunostained for lamin A/C expression (FIGS. 19A and 19D) and keratin 8 expression (FIGS. 19B and 19E), and stained for DNA with DAPI (FIGS. 19C and 19F). Keratin 8 and lamin A/C co-localize in all cells. […] Both keratin 8 and lamin A/C display distinct perinuclear filamentous staining, with greater expression towards the center of cell colonies than the periphery, in untreated F9 cells. […] The treated cells display a DNA morphology consistent with expansion of DNA into […]. Furthermore, cells at the edges of the treated colonies display altered cell morphology and are extending away from the colony, and intercellular spacing in the treated cell colonies has clearly been expanded.

Mouse neural stem cells = experiment: Peptide treatment of mouse neural stem cells, lamin A/C, tubulin, DAPI staining; assay type: cell-based; details: two days
Procedure: Mouse neural stem cells were treated with the prelamin A peptide for two days (FIGS. 18D-18F) and were then fixed, immunostained for lamin A/C expression (FIGS. 18A and 18D) and tubulin expression (FIGS. 18B and 18E), and stained for DNA with DAPI (FIGS. 18C and 18F). […] Tubulin expression in untreated cells is cytoplasmic and relatively diffuse, and tubulin is excluded from the cell nucleus. In peptide-treated cells a distinct filamentous tubulin staining pattern is seen initiating at the cell nucleus and extending into the cell body.

[4] = test system: H9c2 rat cardiac myoblasts; experiment: Prelamin A pre peptide treatment of H9c2 cardiac myoblasts, desmin immunostaining; assay type: cell-based
Procedure: as §1, §2
These cells were previously considered to be of cardiac lineage in part because they express heart-specific L-type calcium channels after prolonged exposure to retinoic acid during serum starvation induced differentiation (24). However, differentiation of H9c2 cells in culture has previously led to fusion and multinucleate myotube formation more resembling skeletal myotubes than cardiac myocytes.
Higher order intra- and intercellular organization is clearly evident in visible striations in the desmin staining pattern. […]

NIH3T3-L1 preadipocytes = experiment: Chicken prelamin A peptide treatment of preadipocytes, oil red O staining; assay type: cell-based; details: 72 hours
Text: Based on the change in morphology and the oil red 0 staining, the chicken peptide induces the differentiation of NIH3T3-L1 cells into adipocytes.

C2C12 cells = experiment: Chicken prelamin A peptide treatment of proliferating C2C12 cells, desmin immunostaining; assay type: cell-based, mouse; details: 40 ug/ml
Procedure: The chicken homologue of the human prelamin A peptide (SEQ ID NO: 17) was chemically synthesized and farnesylated and carboxymethylated. The lyophilized peptide was dissolved at 10 mg/ml in 50% DMSO/50% water. Actively proliferating C2C12 cells were treated with the chicken prelamin A peptide at 40 ug/ml on plastic chamber slides in complete DMEM media containing 10% fetal bovine serum (FBS). After 20 hours the cells were fixed in methanol/acetone and then immunostained with a rabbit anti-desmin primary antibody and a Texas Red conjugated anti-rabbit secondary antibody. Cover slips were mounted with media containing DAPI.

Substance: N-LLGNSSPRTQSPQNC-C (not fully specified (residue 15); also: farnesylated, carboxymethylated; listed as Homo sapiens) [prelamin A pre peptide, farnesylated and carboxymethylated prelamin A C-terminal peptide (human, 15 amino acids), made by FMOC solid phase peptide synthesis]
- cytoskeletal effect [1]: cytoskeletal rearrangements were induced and there was a dissolution of the actin cytoskeleton
- effect on neuroblastoma cells (neuroblastoma): arrest and aggregation
- cell morphogenesis (C2C12 myoblasts; 1 μg/ml, six hours, complete growth media containing 10% FBS): cells have undergone morphogenesis into a bipolar configuration
- desmin localization (C2C12 myoblasts; 1 μg/ml, six hours, growth media 10% FBS): desmin can be seen localizing to the interface with the nuclear lamina and forming a filamentous skeleton at the locations where cells interact
- desmin expression (C2C12 myoblasts; 6 hours after peptide exposure): desmin expression is either upregulated or redistributed
- prelamin A matrix formation (C2C12 myoblasts; 6 hours after peptide exposure): prelamin A forms intra- and intercellular matrices
- cell fusion (C2C12 myoblasts; 6 hours of peptide treatment): cell fusion can be seen
- cell fusion / tissue formation (C2C12 myoblasts; 72 hours, depending on cell density): the cells have fused to form either sheets or myotubes
- time to induction of differentiation after contact with the peptide (C2C12 myoblasts; absence of conventional differentiation factors or cell confluence): within minutes
- fusion of closely spaced myoblasts and cell death (C2C12 myoblasts; closely spaced myoblasts): induces fusion of closely spaced myoblasts into a syncicium which eventually results in cell death
- effect of higher peptide concentrations (C2C12 myoblasts; higher concentrations of the peptide): cell fusion and myotube formations
- concentrations inducing myoblast differentiation (C2C12 myoblasts; in vitro): micromolar and even nanomolar concentrations
- ECM excretion (C2C12 myoblasts; low concentrations of the peptide): excrete ECM
- effect on cell proliferation (C2C12 myoblasts; peptide at 1, 10 and 25 μg/ml): dose-dependant effect on cell proliferation
- polarization of nuclei (C2C12 myoblasts; peptide at 1, 10 and 25 μg/ml): induces the kidney-shaped polarization of nuclei
- effect of lower peptide concentrations (C2C12 myoblasts; topical exposure, lower peptide concentrations): differentiation and morphogenesis representing a number of different cell types, and to intercellular interactions and tissue formation
- cell fusion ([2]; 10 ug/ml, six hours): a number of cells can be seen to have fused
- cell morphology ([2]; 10 ug/ml, six hours): show an elongated morphology
- morphogenesis and fusion ([2]; 25 ug/ml, 18 hours): more extensive myocytes morphogenesis and fusion is observed
- fusion into myosheets ([2]; 72 hours of exposure): fused into beating myosheets
- effect on fibroblasts and interaction between cell types ([2]; fibroblasts adjacent to NRMCs, tubulin and actin staining): induces the differentiation of fibroblasts and fusion/cross-talk between different cell types
- DNA morphology (ES cells): changed drastically
- secretion of pre peptide (ES cells): extensive secretion of the pre peptide
- tubulin expression (ES cells): no longer any tubulin expression
- lamin A/C expression (H9c2 cells): modest increases
- myogenin expression (H9c2 cells): increase
- prelamin A expression (H9c2 cells): modest increases
- structural effect on fibroblasts (fibroblasts): underwent structural reorganization
- cell and DNA morphology, intercellular organization, lamin A/C and keratin 8 expression [3]: induces changes in cell morphology, DNA morphology, intercellular organization, and lamin A/C and keratin 8 expression
- cell proliferation [3]: severely inhibits cell proliferation
- cell appearance (Mouse neural stem cells): taken on the appearance of nerve cells, including glial cells
- cell morphology and tubulin expression (Mouse neural stem cells): induced changes in cell morphology and tubulin expression
- cell proliferation (Mouse neural stem cells): inhibited cell proliferation
- tissue formation ([4]; after 48 hours): formed a tissue sheet of mono- and binucleated cells interconnected by an extensive ECM
- time to extracellular matrix formation ([4]; cardiac myoblasts contacted with peptide): ≤ 5 min
- extracellular matrix secretion ([4]; within six hours, growth media containing 10% FBS): secrete an extensive desmin extracellular matrix (ECM)

Substance: VLGGAGPRRQAPAPQGC (listed as Gallus gallus) [chicken prelamin A peptide, chicken homologue of the human prelamin A peptide, chemically synthesized]
- differentiation (NIH3T3-L1 preadipocytes): differentiated into adipocytes
- oil red O staining (NIH3T3-L1 preadipocytes): stained positively with oil red 0
- cytoskeleton (C2C12 cells; 20 hours, desmin staining): cytoskeleton formation
- cell cycle (C2C12 cells; within 20 hours, DMEM 10% FBS): induced cell cycle arrest
- morphogenesis and fusion (C2C12 cells; within 20 hours, DMEM 10% FBS): myoblast morphogenesis and fusion
